This is an account of results in ChEMBL document CHEMBL3351645, “Design and synthesis of γ-butyrolactone derivatives as potential spermicidal agents” (Bioorg Med Chem Lett, 2014).

Active and inactive are the calls of the source. The rule behind the calls is not given here.

The subject of test [1] is Spermatozoa. The experiment in a line: Spermicidal activity in human semen assessed as induction of spermatozoa immotility at <0.1% w/v by Sander-Cramer method. The test is classed as functional.
For test [2], the system named is Spermatozoa. The experiment in a line: Spermicidal activity in human semen assessed as induction of spermatozoa immotility by Sander-Cramer method. The test is classed as functional.
For another test, the system named is HeLa. The experiment in a line: Cytotoxicity against human HeLa cells. In kind it is cell-based.
The subject of test [3] is Spermatozoa. The experiment in a line: Spermicidal activity in human semen assessed as induction of spermatozoa immotility at 0.1% w/v by Sander-Cramer method. The test is classed as functional, cell-based.
Test [4] relates to Spermatozoa. The experiment in a line: Inhibition of free thiols level in human semen derived spermatozoa at 1% incubated for 15 mins by monobromobimane dye based fluorescence microscopy. In kind it is functional, cell-based.

Take `CN(C)CCCC1(C(=O)/C=C/c2ccc(O)cc2)CCOC1=O.O=C(O)C(O)C(O)C(=O)O` (stereo unspecified): the MEC in the test on Spermatozoa [1] and in the test with Spermatozoa [2] was 0.5% throughout. The molecule also showed an IC50 in the test with HeLa of 661 µg/mL.
On to `COc1cc(/C=C/C(=O)C2(CCN3CCCC3)CCOC2=O)ccc1O` (stereo unspecified), for which the outcome in the test on Spermatozoa [3] was inactive.
As for `CC(=O)C1(CCN2CCOCC2)CCOC1=O` (stereo unspecified), the MEC entry in the test with Spermatozoa [2] is “inactive”.
With `CCN(CC)CCC1(C(=O)/C=C/c2ccc(N(C)C)cc2)CCOC1=O` (stereo unspecified), the outcome with Spermatozoa [3] was inactive.
On to `CN(C)CCCC1(C(=O)/C=C/c2ccc(N(C)C)cc2)CCOC1=O.O=C(O)C(O)C(O)C(=O)O` (stereo unspecified), for which the MEC is listed as 0.1% in the test on Spermatozoa [1] and 0.5% in the test with Spermatozoa [2]. In addition, half-maximal inhibition in the test on HeLa (IC50) was put at 1200 µg/mL.
For the molecule `O=C(/C=C/c1ccc(O)cc1)C1(CCN2CCCC2)CCOC1=O` (stereo unspecified), the outcome with Spermatozoa [3] was inactive.
With `CN(C)c1ccc(/C=C/C(=O)C2(CCN3CCOCC3)CCOC2=O)cc1.O=C(O)C(O)C(O)C(=O)O` (stereo unspecified), the MEC with Spermatozoa [1] and in the test with Spermatozoa [2] was 0.5% in each case. In the test with HeLa, this molecule showed an IC50 of 1330 µg/mL.
`CN(C)c1ccc(/C=C/C(=O)C2CCOC2=O)cc1` (stereo unspecified): the outcome in the test on Spermatozoa [3] was inactive. Besides, the MEC entry with Spermatozoa [2] is “inactive”.
On to `CN(C)c1ccc(/C=C/C(=O)C2(CCN3CCCC3)CCOC2=O)cc1` (stereo unspecified), for which the result in the test on Spermatozoa [3] was inactive.
`CC(=O)C1(CCN2CCCC2)CCOC1=O` (stereo unspecified): in the test on Spermatozoa [2], the MEC entry was “inactive”.
Turning to `O=C(/C=C/c1ccc(O)cc1)C1CCOC1=O` (stereo unspecified), the outcome in the test on Spermatozoa [3] was inactive. Also, in the test on Spermatozoa [2], the MEC result is “inactive”.
In the case of `CCCCCCCCCc1ccc(OCCOCCOCCOCCOCCOCCOCCOCCOCCO)cc1` [NONOXYNOL 9], the MEC with Spermatozoa [1] is recorded as 0.02%.
For the molecule `COc1cc(/C=C/C(=O)C2CCOC2=O)ccc1O` (stereo unspecified), the result with Spermatozoa [3] was inactive.
Regarding `CCN(CC)CCC1(C(C)=O)CCOC1=O` (stereo unspecified), in the test on Spermatozoa [2], the MEC result is “inactive”.
Regarding `O=C(/C=C/c1ccc(O)cc1)C1(CCN2CCOCC2)CCOC1=O.O=C(O)C(O)C(O)C(=O)O` (stereo unspecified), the MEC in the test on Spermatozoa [1] and in the test with Spermatozoa [2] was 0.05% in each case. Besides, the half-inhibitory concentration (IC50) in the test with HeLa came out at 961 µg/mL. Also, in the test on Spermatozoa [4], the inhibition entry is “Active”.
For `COc1cc(/C=C/C(=O)C2(CCCN(C)C)CCOC2=O)ccc1O.O=C(O)C(O)C(O)C(=O)O` (stereo unspecified), the MEC with Spermatozoa [1] and in the test with Spermatozoa [2] was 0.05% each time. In the test with HeLa, the IC50 is 269 µg/mL. In the test with Spermatozoa [4], the inhibition result is “inactive”.
In the case of `CC(=O)C1(CCCN(C)C)CCOC1=O` (stereo unspecified), the MEC entry in the test with Spermatozoa [2] is “inactive”.
Turning to `COc1cc(/C=C/C(=O)C2(CCN3CCOCC3)CCOC2=O)ccc1O.O=C(O)C(O)C(O)C(=O)O` (stereo unspecified), the MEC in the test with Spermatozoa [1] came to 0.1%; with Spermatozoa [2] it was 0.5%. For the same molecule, the IC50 in the test on HeLa came out at 848 µg/mL.
For `CCN(CC)CCC1(C(=O)/C=C/c2ccc(O)c(OC)c2)CCOC1=O` (stereo unspecified), in the test on Spermatozoa [3], the result was inactive.
The same measure, in the same setting: next, `CCN(CC)CCC1(C(=O)/C=C/c2ccc(O)cc2)CCOC1=O` (stereo unspecified): “inactive”.
